Measured values published in patent US11643405B2, “Compound for treatment or prevention of liver diseases” (JIANGSU ATOM BIOSCIENCE AND PHARMACEUTICAL CO., LTD., priority 2018, dated 2023).

How the values were obtained:
in vivo = conditions: both sexes, ICR, mouse, po
Description: The test compound was compound 7; the positive control silymarin was purchased from Shanghai Dibai Biotechnology Co., Ltd., with the batch number HH06. Immediately before use, the suspension was prepared with normal saline and ultrasound to prepare a suspension with a corresponding concentration.
Low-dose group (1.5 g/kg) solution preparation: the quantitative test compound 7 or positive control compound was precisely weighed, and a certain amount of normal saline was added to prepare the oral suspension solution with the concentration of 75 mg/mL. The administration volume was 20 mL/kg.
High-dose group (3.0 g/kg) solution preparation: the quantitative test compound 7 or positive control compound was precisely weighed, and a certain amount of normal saline was added to prepare the oral suspension solution with the concentration of 150 mg/mL. The administration volume was 20 mL/kg.
ICR mice, SPF grade, weight: 16-18 g, 6-8 weeks old. Provided by Nantong University, laboratory animal production license number: SCXK (Su) 2014-0001; laboratory animal use license: SYXK (Su) 2017-0007.
16 ICR mice were randomly divided into compound 7 low-dose group, compound 7 high-dose group, silymarin low-dose group and silymarin high-dose group, with 4 mice in each group, half male and half female. […]

[1] = tested on: zebrafish non-alcoholic fatty liver; assay: Fat reduction or elimination effect on thioacetamide-induced zebrafish non-alcoholic fatty liver (Oil Red O staining); type: in vivo; conditions: for The total optical density of liver fat: mean ± SE, n = 10
Description: 40 mM stock solution of test compounds 4, 5, 6, 7, 46, 67, 78, 85, 92 and 101 were prepared with DMSO, and stored in a refrigerator at −20° C. The positive control compound S-adenosylmethionine (SAM) was purchased from Aladdin Reagent (Shanghai) Co., Ltd., with the batch number F1523051, which was prepared into a 50 mM stock solution with DMSO. The control compound silymarin was purchased from Shanghai Dibai Biotechnology Co., Ltd., with the batch number EE09, which was prepared into a 40 mM stock solution with DMSO. Thioacetamide was purchased from Sigma-Aldrich, with the batch number BCBV3031, which wasprepared into a 1 M stock solution with DMSO. Oil Red O was purchased from Sigma-Aldrich, with the batch number SLBP5248V. 4% paraformaldehyde was purchased from Dingguo Biotechnology Co., Ltd., with the batch number 773001800. Propylene glycol was purchased from Sinopharm Chemical Reagent Co., Ltd., with the batch number 20170615.
The melanin allele mutant translucent Albino line zebrafish was reproduced in natural paired mating. The fish age was 3 days after fertilization, with 30 fish per experimental group.
The above zebrafish were raised in fish farming water at 28° C. (water quality: 200 mg instant sea salt was added to 1 L of reverse osmosis water, conductivity was 480-510 μS/cm; pH was 6.9-7.2; hardness was 53.7-71.6 mg/L CaCOs), the experimental animal use license number was: SYXK (Zhejiang) 2012-0171. Feeding management met the requirements of international AAALAC certification.
Three days after fertilization, the normal melanin allele mutant translucent Albino strain of zebrafish was randomly selected and placed in a six well plate with 30 fish per well (i.e. each experimental group), and then thioacetamide with the final concentration of 7 mM was used to treat zebrafish for 72 hours to establish the non-alcoholic fatty liver model.
The zebrafish were transferred to a six-well plate, with 30 fish per well (i.e., each experimental group) randomly. Non-alcoholic fatty liver model in zebrafish were induced by thioacetamide. 40 mM test compounds 4, 5, 6, 7, 46, 67, 78, 85, 92 and 101 were quantitatively transferred to a six-well plate, and diluted with water to the corresponding concentration. Test compounds 4, 5, 6 and 7 were formulated into two dose groups with final concentration of 100 μM and 200 μM, respectively; test compound 46 was formulated into a dose group with final concentration of 200 μM; test compounds 67, 78, 85, 92 and 101 were formulated into dose groups with a final concentration of 100 μM; 50 mM positive control SAM was formulated with water to a dose group with final concentration of 50 μM, and a 40 mM positive control silymarin was formulated with water to two concentration dose groups with final concentration of 100 μM and 200 μM. A normal control group (zebrafish treated with fish farming water) and a model control group were set at the same time, and the total volume of each well was 3 mL. Except for the normal control group, the other experimental groups were treated with thioacetamide for 72 hours and stained with Oil Red O. After staining, 10 zebrafish were randomly selected from each experimental group and photographed under a dissecting microscope, NIS-Elements D 3.10 advanced image processing software was used to perform image analysis and collect data, the total optical density (S) of zebrafish liver fat was statistically analyzed, and for the inhibitory effect of each experimental group on liver steatosis of zebrafishwas evaluated by the following formula, the results of statistical analysis were expressed as mean±SE: Inhibition rate of liver steatosis (%)=[S(model control group)−S(test compound group)]/[S(model control group)−S(normal control group)]×100%
Statistical analysis was performed using analysis of variance and Dunnett's T-test, and p<0.05 indicated a significant difference. […]

Compound: COc1cc(C2Oc3cc(C4Oc5cc(O)cc(O)c5CC4O)cc(O)c3OC2CO)ccc1O (stereo not shown) [Compound 7, 2-{8-hydroxy-3-(4-hydroxy-3-methoxyphenyl)-2-hydroxymethyl-2,3-dihydrobenzo[b][1,4]dioxan-6-yl}chroman-3,5,7-triol]
- MTD at 14 days (in vivo): 3000 mg/kg
- Therapeutic effect on non-alcoholic fatty liver of zebrafish (in words) ([1]; 100 μM): significant therapeutic effects
- The total optical density of liver fat ([1]; 100 μM): 17835 ± 351 Pixels
- Therapeutic effect on zebrafish non-alcoholic fatty liver (in words) ([1]; 200 μM): significant therapeutic effect
- The total optical density of liver fat ([1]; 200 μM): 18090 ± 437 Pixels
- inhibition at 100 µM ([1]; Danio rerio, 100 μM, read-out: Inhibition rate of liver steatosis): 98%
- inhibition at 200 µM ([1]; Danio rerio, 200 μM, read-out: Inhibition rate of liver steatosis): 93%
